Test results reported in paper PMC5300872, “Convergent evolution of the arginine deiminase pathway: the ArcD and ArcE arginine/ornithine exchangers” (MicrobiologyOpen, 2016).

Target: T1, ArcD1 (Lactococcus cremoris, UniProt A2RNI5)
T1 construct: plasmid pNZarcD1, nisin-inducible; expressed in L. lactis deltaarcD1D2 cells
T1 sequence (A2RNI5 1-526): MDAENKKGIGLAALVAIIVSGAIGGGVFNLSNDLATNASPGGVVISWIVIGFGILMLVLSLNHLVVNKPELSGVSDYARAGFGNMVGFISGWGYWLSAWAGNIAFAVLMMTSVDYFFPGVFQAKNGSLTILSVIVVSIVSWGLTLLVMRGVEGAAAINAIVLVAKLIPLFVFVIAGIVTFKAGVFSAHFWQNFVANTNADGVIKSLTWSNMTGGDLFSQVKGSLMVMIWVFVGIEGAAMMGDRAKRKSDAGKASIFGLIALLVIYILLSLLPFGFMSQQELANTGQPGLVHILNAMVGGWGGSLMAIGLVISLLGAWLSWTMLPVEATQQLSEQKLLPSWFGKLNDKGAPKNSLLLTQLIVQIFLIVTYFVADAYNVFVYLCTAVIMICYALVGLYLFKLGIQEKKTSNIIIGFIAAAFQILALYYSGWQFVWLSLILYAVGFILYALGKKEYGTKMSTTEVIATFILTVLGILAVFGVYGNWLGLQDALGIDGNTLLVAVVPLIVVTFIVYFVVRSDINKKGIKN
Assay: inhibition of […]L-ornithine uptake in resting cells
Assay type: cell-based
Settings: read-out: ArcD1 / KI ^b (μm)

NC(=O)NCCC[C@H](N)C(=O)O [L‐Citr, L‐citrulline]
Ki: 529 ± 135 µM
